According to US9266835B2, “Quinoline derivatives useful as CB-1 inverse agonists” (JANSSEN PHARMACEUTICA NV, priority 2014, dated 2016):

Columns and labels:
[1] = target: Human CB1R (Cannabinoid receptor 1) (Homo sapiens (Human), UniProt P21554); experiment: CB-1 in vitro cAMP assay (HTRF), inverse agonism; assay type: cell-based; conditions: mean where tested more than once
[2] = target: Human CB2R (Cannabinoid receptor 2) (Homo sapiens (Human), UniProt P34972); experiment: CB-2 in vitro cAMP assay (HTRF), inverse agonism; assay type: cell-based; conditions: mean where tested more than once
Human CB2R (Cannabinoid receptor 2), sequence (P34972 whole entry): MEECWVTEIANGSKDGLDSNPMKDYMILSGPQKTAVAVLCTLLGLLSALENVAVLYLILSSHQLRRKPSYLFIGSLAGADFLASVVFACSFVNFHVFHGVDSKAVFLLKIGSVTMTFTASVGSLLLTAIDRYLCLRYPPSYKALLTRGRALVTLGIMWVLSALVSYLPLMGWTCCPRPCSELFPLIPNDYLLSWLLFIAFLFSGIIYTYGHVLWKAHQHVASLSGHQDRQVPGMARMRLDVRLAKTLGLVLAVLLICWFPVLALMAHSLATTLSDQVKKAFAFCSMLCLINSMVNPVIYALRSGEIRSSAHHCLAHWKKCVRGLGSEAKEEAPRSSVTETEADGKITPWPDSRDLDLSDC

Human CB1R (Cannabinoid receptor 1), sequence (P21554 whole entry): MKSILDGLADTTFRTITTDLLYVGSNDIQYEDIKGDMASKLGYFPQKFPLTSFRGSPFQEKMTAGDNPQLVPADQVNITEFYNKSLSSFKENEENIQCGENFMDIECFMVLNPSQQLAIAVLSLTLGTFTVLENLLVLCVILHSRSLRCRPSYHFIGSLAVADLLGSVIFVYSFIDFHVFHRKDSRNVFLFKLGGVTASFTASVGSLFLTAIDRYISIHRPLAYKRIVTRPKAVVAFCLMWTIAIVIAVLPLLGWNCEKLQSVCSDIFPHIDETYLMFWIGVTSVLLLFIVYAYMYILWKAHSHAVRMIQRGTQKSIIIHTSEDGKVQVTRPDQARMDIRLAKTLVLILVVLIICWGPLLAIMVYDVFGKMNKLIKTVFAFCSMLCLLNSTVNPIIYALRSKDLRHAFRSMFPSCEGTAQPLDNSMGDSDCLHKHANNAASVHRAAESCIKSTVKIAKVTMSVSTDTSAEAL

| Compound | EC50 [1] [nM] | EC50 [2] [nM] |
| --- | --- | --- |
| O=c1cc(NC2CCN(S(=O)(=O)C(F)(F)F)CC2)c2cc(C(c3ccc(Cl)cc3)c3ccc(Cl)cc3)cc(NC3CCN(S(=O)(=O)C(F)(F)F)CC3)c2[nH]1 [Compound 99] | > 10000 | > 10000 |
| COCCNc1cc(C(c2ccc(Cl)cc2)c2ccc(Cl)cc2)cc2c(NC3CCN(S(=O)(=O)C(F)(F)F)CC3)cc(=O)[nH]c12 [Compound 100, 6-(bis(4-chlorophenyl)methyl)-8-((2-methoxyethyl)amino)-4-((1-((trifluoromethyl)sulfonyl)piperidin-4-yl)amino)quinolin-2(1H)-one] | 6 | 200 |
| COCCNc1ccc(C(c2ccc(Cl)cc2)c2cc(NCCOC)c3[nH]c(=O)cc(NC4CCN(S(=O)(=O)C(F)(F)F)CC4)c3c2)cc1 (centres unmarked) [Compound 101, 6-((4-chlorophenyl)(4-((2-methoxyethyl)amino)phenyl)methyl)-8-((2-methoxyethyl)amino)-4-((1-((trifluoromethyl)sulfonyl)piperidin-4-yl)amino)quinolin-2(1H)-one] | 15 | 910 |
| CCOC(=O)CS(=O)(=O)N1CCC(Nc2cc(=O)[nH]c3ccc(C(c4ccc(Cl)cc4)c4ccc(Cl)cc4)cc23)CC1 [Compound 102, ethyl 2-((4-((6-(bis(4-chlorophenyl)methyl)-2-oxo-1,2-dihydroquinolin-4-yl)amino)piperidin-1-yl)sulfonyl)acetate] | 17 | > 10000 |
| CCOC(=O)CCCNc1cc(C(c2ccc(Cl)cc2)c2ccc(Cl)cc2)cc2c(NC3CCN(S(=O)(=O)C(F)(F)F)CC3)cc(=O)[nH]c12 [Compound 104, Ethyl 4-({6-[bis(4-chlorophenyl)methyl]-2-oxo-4-({1-[(trifluoromethyl)sulfonyl]-piperidin-4-yl}amino)-1,2-dihydroquinolin-8-yl}amino)butanoate] | 1120 | > 10000 |
| CC(C)(C)OC(=O)COc1ccc(Nc2cc(=O)[nH]c3ccc(C(c4ccc(Cl)cc4)c4ccc(Cl)cc4)cc23)cc1 [Compound 105, tert-butyl 2-(4-((6-(bis(4-chlorophenyl)methyl)-2-oxo-1,2-dihydroquinolin-4-yl)amino)phenoxy)acetate] | 95 | > 10000 |
| NC(=O)CC(=O)N1CCC(Nc2cc(=O)[nH]c3ccc(C(c4ccc(Cl)cc4)c4ccc(Cl)cc4)cc23)CC1 [Compound 106, 3-(4-((6-(bis(4-chlorophenyl)methyl)-2-oxo-1,2-dihydroquinolin-4-yl)amino)piperidin-1-yl)-3-oxopropanamide] | 1550 | 6500 |
| O=C1CCCN1c1cc(C(c2ccc(Cl)cc2)c2ccc(Cl)cc2)cc2c(NC3CCN(S(=O)(=O)C(F)(F)F)CC3)cc(=O)[nH]c12 [Compound 107, 6-(bis(4-chlorophenyl)methyl)-8-(2-oxopyrrolidin-1-yl)-4-((1-((trifluoromethyl)sulfonyl)piperidin-4-yl)amino)quinolin-2(1H)-one] | 52 | 670 |
| O=C(O)CCCNc1cc(C(c2ccc(Cl)cc2)c2ccc(Cl)cc2)cc2c(NC3CCN(S(=O)(=O)C(F)(F)F)CC3)cc(=O)[nH]c12 [Compound 108, 4-((6-(bis(4-chlorophenyl)methyl)-2-oxo-4-((1-((trifluoromethyl)sulfonyl)piperidin-4-yl)amino)-1,2-dihydroquinolin-8-yl)amino)butanoic acid] | 310 | 460 |
| O=C(O)COc1ccc(Nc2cc(=O)[nH]c3ccc(C(c4ccc(Cl)cc4)c4ccc(Cl)cc4)cc23)cc1 [Compound 109, 2-(4-((6-(bis(4-chlorophenyl)methyl)-2-oxo-1,2-dihydroquinolin-4-yl)amino)phenoxy)acetic acid] | 5120 | > 10000 |
| COCCn1c(=O)cc(NC2CCN(S(=O)(=O)C(F)(F)F)CC2)c2cc(C(c3ccc(Cl)cc3)c3ccc(Cl)cc3)ccc21 [Compound 110, 6-(bis(4-chlorophenyl)methyl)-1-(2-methoxyethyl)-4-((1-((trifluoromethyl)sulfonyl)piperidin-4-yl)amino)quinolin-2(1H)-one] | 228 | > 10000 |
| NC(=O)COc1ccc(Nc2cc(=O)[nH]c3ccc(C(c4ccc(Cl)cc4)c4ccc(Cl)cc4)cc23)cc1 [Compound 111, 2-(4-((6-(bis(4-chlorophenyl)methyl)-2-oxo-1,2-dihydroquinolin-4-yl)amino)phenoxy)acetamide] | 99 | > 10000 |
| NC(=O)CCC(=O)N1CCC(Nc2cc(=O)[nH]c3ccc(C(c4ccc(Cl)cc4)c4ccc(Cl)cc4)cc23)CC1 [Compound 112, 4-[4-({6-[Bis(4-chlorophenyl)methyl]-2-oxo-1,2-dihydroquinolin-4-yl}amino)piperidin-1-yl]-4-oxobutanamide] | 302 | > 10000 |
| COC(=O)c1ccc(C(=O)N2CCC(Nc3cc(=O)[nH]c4ccc(C(c5ccc(Cl)cc5)c5ccc(Cl)cc5)cc34)CC2)cc1 [Compound 113, Methyl 4-{[4-({6-[bis(4-chlorophenyl)methyl]-2-oxo-1,2-dihydroquinolin-4-yl}amino)piperidin-1-yl]carbonyl}benzoate] | 25 | > 10000 |
| CC(C)(C)OC(=O)CCN1CCC(Nc2cc(=O)[nH]c3ccc(C(c4ccc(Cl)cc4)c4ccc(Cl)cc4)cc23)CC1 [Compound 114, tert-butyl 3-(4-((6-(bis(4-chlorophenyl)methyl)-2-oxo-1,2-dihydroquinolin-4-yl)amino)piperidin-1-yl)propanoate] | 103 | > 10000 |
| O=C(O)CCN1CCC(Nc2cc(=O)[nH]c3ccc(C(c4ccc(Cl)cc4)c4ccc(Cl)cc4)cc23)CC1 [Compound 115, 3-[4-({6-[Bis(4-chlorophenyl)methyl]-2-oxo-1,2-dihydroquinolin-4-yl}amino)piperidin-1-yl]propanoic acid] | > 10000 | > 10000 |
| O=C(O)c1ccc(C(=O)N2CCC(Nc3cc(=O)[nH]c4ccc(C(c5ccc(Cl)cc5)c5ccc(Cl)cc5)cc34)CC2)cc1 [Compound 116, 4-{[4-({6-[Bis(4-chlorophenyl)methyl]-2-oxo-1,2-dihydroquinolin-4-yl}amino)piperidin-1-yl]carbonyl}benzoic acid] | 438 | > 10000 |
| O=C(O)CN1CCC(Nc2cc(=O)[nH]c3ccc(C(c4ccc(Cl)cc4)c4ccc(Cl)cc4)cc23)CC1 [Compound 117, [4-({6-[Bis(4-chlorophenyl)methyl]-2-oxo-1,2-dihydroquinolin-4-yl}amino)piperidin-1-yl]acetic acid] | 9700 | > 10000 |
| CC(C)(C)OC(=O)/N=C(/NC(=O)OC(C)(C)C)N1CCC(Nc2cc(=O)[nH]c3ccc(C(c4ccc(Cl)cc4)c4ccc(Cl)cc4)cc23)CC1 [Compound 119, (Z)-tert-butyl ((4-((6-(bis(4-chlorophenyl)methyl)-2-oxo-1,2-dihydroquinolin-4-yl)amino)piperidin-1-yl)((tert-butoxycarbonyl)imino)methyl)carbamate] | 128 | > 10000 |
| O=C(O)CCCOc1ccc(Nc2cc(=O)[nH]c3ccc(C(c4ccc(Cl)cc4)c4ccc(Cl)cc4)cc23)cc1 [Compound 121, 4-[4-({6-[Bis(4-chlorophenyl)methyl]-2-oxo-1,2-dihydroquinolin-4-yl}amino)phenoxy]butanoic acid] | 1010 | > 10000 |
| O=C(O)c1ccc(S(=O)(=O)N2CCC(Nc3cc(=O)[nH]c4ccc(C(c5ccc(Cl)cc5)c5ccc(Cl)cc5)cc34)CC2)cc1 [Compound 122, 4-((4-((6-(bis(4-chlorophenyl)methyl)-2-oxo-1,2-dihydroquinolin-4-yl)amino)piperidin-1-yl)sulfonyl)benzoic acid] | 159 | 240 |
| NC(=O)CCCOc1ccc(Nc2cc(=O)[nH]c3ccc(C(c4ccc(Cl)cc4)c4ccc(Cl)cc4)cc23)cc1 [Compound 123, 4-[4-({6-[Bis(4-chlorophenyl)methyl]-2-oxo-1,2-dihydroquinolin-4-yl}amino)phenoxy]butanamide] | 219 | > 10000 |
| COC(=O)Cc1ccc(Nc2cc(=O)[nH]c3ccc(C(c4ccc(Cl)cc4)c4ccc(Cl)cc4)cc23)cc1 [Compound 124, Methyl [4-({6-[bis(4-chlorophenyl)methyl]-2-oxo-1,2-dihydroquinolin-4-yl}amino)phenyl]acetate] | 27 | > 10000 |
| O=C(O)Cc1ccc(Nc2cc(=O)[nH]c3ccc(C(c4ccc(Cl)cc4)c4ccc(Cl)cc4)cc23)cc1 [Compound 125, [4-({6-[Bis(4-chlorophenyl)methyl]-2-oxo-1,2-dihydroquinolin-4-yl}amino)phenyl]acetic acid] | 2480 | > 10000 |
| NC(=O)Cc1ccc(Nc2cc(=O)[nH]c3ccc(C(c4ccc(Cl)cc4)c4ccc(Cl)cc4)cc23)cc1 [Compound 126, 2-[4-({6-[Bis(4-chlorophenyl)methyl]-2-oxo-1,2-dihydroquinolin-4-yl}amino)phenyl]acetamide] | 79 | 8100 |
| O=C(O)c1ccc(CN2CCC(Nc3cc(=O)[nH]c4ccc(C(c5ccc(Cl)cc5)c5ccc(Cl)cc5)cc34)CC2)cc1 [Compound 127, 4-{[4-({6-[Bis(4-chlorophenyl)methyl]-2-oxo-1,2-dihydroquinolin-4-yl}amino)piperidin-1-yl]methyl}benzoic acid] | 876 | > 10000 |
| O=C(O)c1ccc(CN2CCC(Nc3cc(=O)[nH]c4ccc(C(c5ccc(Cl)cc5)c5ccc(Cl)cc5)cc34)CC2)s1 [Compound 128, 5-{[4-({6-[Bis(4-chlorophenyl)methyl]-2-oxo-1,2-dihydroquinolin-4-yl}amino)piperidin-1-yl]methyl}thiophene-2-carboxylic acid] | 293 | 9700 |
| O=C(O)c1cccc(CN2CCC(Nc3cc(=O)[nH]c4ccc(C(c5ccc(Cl)cc5)c5ccc(Cl)cc5)cc34)CC2)c1 [Compound 129, 3-((4-((6-(bis(4-chlorophenyl)methyl)-2-oxo-1,2-dihydroquinolin-4-yl)amino)piperidin-1-yl)methyl)benzoic acid] | 157 | > 10000 |
